Values after ≈ are worked out from the molar mass of the structure shown.
Experiments:
M. bovis BCG = assay: microbe, parasite or virus in culture; format: cell-based; settings: Mycobacterium tuberculosis variant bovis BCG, read-out: MIC M. bovis BCG
M. tuberculosis H37Rv = assay: Antimycobacterial MIC / primary screening, MABA (microplate alamar blue assay); format: cell-based; settings: Mycobacterium tuberculosis
L929 cells = assay: Cytotoxicity, MTT protocol (ISO 10993-5:2009(E)); format: cell-based; settings: ratio to MIC against M. tuberculosis
Experimental: This evaluation adhered precisely to international standards (ISO 10993-5:2009(E)), employing L929 cells and the MTT protocol ([Bekier et al., 2021]). The determination of the half maximal inhibitory concentration (IC50) values was carried out for 12 out of the 13 compounds tested, considering the occurrence of derivative precipitation in the growth medium for L929 cells (Table 1). […] For two compounds (5g and 5i), the discriminatory index (IC50/MIC) was identified at the level of 20.

M. abscessus = assay: Antimycobacterial MIC / primary screening, MABA; format: cell-based; settings: Mycobacteroides abscessus, read-out: MIC M. abscessus
MTB InhA = MTB InhA (Mycobacterium tuberculosis, UniProt P9WGR1); assay: InhA inhibition endpoint assay; format: biochemical; settings: read-out: IC50 against InhA
MTB = settings: cited from earlier work

Sequence of MTB InhA (P9WGR1 whole entry, looked up): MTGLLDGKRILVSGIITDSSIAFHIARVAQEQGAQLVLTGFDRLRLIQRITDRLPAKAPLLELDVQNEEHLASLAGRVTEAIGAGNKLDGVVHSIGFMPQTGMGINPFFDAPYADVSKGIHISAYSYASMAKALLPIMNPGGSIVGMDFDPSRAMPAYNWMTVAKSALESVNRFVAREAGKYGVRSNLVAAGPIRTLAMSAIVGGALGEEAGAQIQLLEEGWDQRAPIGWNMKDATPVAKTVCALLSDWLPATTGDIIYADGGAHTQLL

Row | SMILES | MIC (M. bovis BCG) | melting point | MIC (M. tuberculosis H37Rv) | IC50-L929/MIC Mtb (cytotoxicity / discriminatory index) (L929 cells) | MIC (M. abscessus) | IC50 (MTB InhA) | MIC against MTB (MTB; ref Quimque et al., 2023) | MIC, tuberculosis (MTB; ref Gill et al., 2008)
1 | Cc1c(-c2cc(C(=O)O)c3cc(Cl)ccc3n2)nnn1-c1cccc(Br)c1 [Compound 5L, 2-(1-(3-Bromophenyl)-5-methyl-1H-1,2,3-triazol-4-yl)-6-chlorobenzo [b]pyridine-4-carboxylic acid] | < 125 µg/mL | 248 to 250 °C | 15 µg/mL (≈ 33.8 µM) | 13 | > 125 µg/mL | – | – | –
2 | Cc1c(-c2cc(C(=O)O)c3ccccc3n2)nnn1-c1ccccc1 [Compound 5a, 2-(5-Methyl-1-phenyl-1H-1,2,3-triazol-4-yl)benzo [b]pyridine-4-carboxylic acid] | < 125 µg/mL | 278 to 280 °C | 125 µg/mL (≈ 378 µM) | – | > 125 µg/mL | – | – | –
3 | COc1ccc(-n2nnc(-c3cc(C(=O)O)c4ccccc4n3)c2C)cc1 [Compound 5b, 2-(1-(4-Methoxyphenyl)-5-methyl-1H-1,2,3-triazol-4-yl)benzo[b]pyridine-4-carboxylic acid] | < 125 µg/mL | 222 to 224 °C | 62.5 µg/mL (≈ 173 µM) | – | > 125 µg/mL | – | – | –
4 | Cc1c(-c2cc(C(=O)O)c3ccccc3n2)nnn1-c1cccc(Cl)c1 [Compound 5c, 2-(1-(3-Chlorophenyl)-5-methyl-1H-1,2,3-triazol-4-yl)benzo [b]pyridine-4-carboxylic acid] | < 125 µg/mL | 276 to 277 °C | 62.5 µg/mL (≈ 171 µM) | – | > 125 µg/mL | – | – | –
5 | Cc1c(-c2cc(C(=O)O)c3ccccc3n2)nnn1-c1cccc(Br)c1 [Compound 5d, 2-(1-(3-Bromophenyl)-5-methyl-1H-1,2,3-triazol-4-yl)benzo [b]pyridine-4-carboxylic acid] | < 125 µg/mL | 248 to 250 °C | 62.5 µg/mL (≈ 153 µM) | – | > 125 µg/mL | – | – | –
6 | Cc1c(-c2cc(C(=O)O)c3ccccc3n2)nnn1-c1ccc(F)cc1 [Compound 5e, 2-(1-(4-Fluorophenyl)-5-methyl-1H-1,2,3-triazol-4-yl)benzo [b]pyridine-4-carboxylic acid] | < 125 µg/mL | 290 to 291 °C | 125 µg/mL (≈ 359 µM) | – | > 125 µg/mL | – | – | –
7 | Cc1c(-c2cc(C(=O)O)c3ccccc3n2)nnn1-c1ccc(Cl)cc1 [Compound 5f, 2-(1-(4-Chlorophenyl)-5-methyl-1H-1,2,3-triazol-4-yl)benzo [b]pyridine-4-carboxylic acid] | < 125 µg/mL | 246 to 248 °C | 62.5 µg/mL (≈ 171 µM) | – | > 125 µg/mL | – | – | –
8 | Cc1c(-c2cc(C(=O)O)c3ccccc3n2)nnn1-c1ccc(Br)cc1 [Compound 5g, 2-(1-(4-Bromophenyl)-5-methyl-1H-1,2,3-triazol-4-yl)benzo [b]pyridine-4-carboxylic acid] | < 125 µg/mL | 228 to 229 °C | 15 µg/mL (≈ 36.7 µM) | 20 | > 125 µg/mL | 4130 ± 170 nM | – | –
9 | Cc1c(-c2cc(C(=O)O)c3ccccc3n2)nnn1-c1ccc([N+](=O)[O-])cc1 [Compound 5h, 2-(5-Methyl-1-(4-nitrophenyl)-1H-1,2,3-triazol-4-yl)benzo [b]pyridine-4-carboxylic acid] | < 125 µg/mL | 265 to 267 °C | 125 µg/mL (≈ 333 µM) | – | > 125 µg/mL | – | – | –
10 | Cc1c(-c2cc(C(=O)O)c3cc(Cl)ccc3n2)nnn1-c1ccccc1 [Compound 5i, 6-Chloro-2-(5-methyl-1-phenyl-1H-1,2,3-triazol-4-yl)benzo [b]pyridine-4-carboxylic acid] | < 125 µg/mL | > 300 °C | 15 µg/mL (≈ 41.1 µM) | 20 | > 125 µg/mL | 11800 ± 490 nM | – | –
11 | COc1ccc(-n2nnc(-c3cc(C(=O)O)c4cc(Cl)ccc4n3)c2C)cc1 [Compound 5j, 6-Chloro-2-(1-(4-methoxyphenyl)-5-methyl-1H-1,2,3-triazol-4-yl)benzo [b]pyridine-4-carboxylic acid] | < 125 µg/mL | 287 to 289 °C | 15 µg/mL (≈ 38 µM) | 10 | > 125 µg/mL | – | – | –
12 | Cc1c(-c2cc(C(=O)O)c3cc(Cl)ccc3n2)nnn1-c1cccc(Cl)c1 [Compound 5k, 6-Chloro-2-(1-(3-chlorophenyl)-5-methyl-1H-1,2,3-triazol-4-yl)benzo [b]pyridine-4-carboxylic acid] | < 125 µg/mL | > 300 °C | 15 µg/mL (≈ 37.6 µM) | 13 | > 125 µg/mL | – | – | –
13 | Cc1c(-c2cc(C(=O)O)c3cc(Cl)ccc3n2)nnn1-c1ccc(F)cc1 [Compound 5m, 6-Chloro-2-(1-(4-fluorophenyl)-5-methyl-1H-1,2,3-triazol-4-yl)benzo [b]pyridine-4-carboxylic acid] | < 125 µg/mL | 298 to 299 °C | 62.5 µg/mL (≈ 163 µM) | – | > 125 µg/mL | – | – | –
14 | Cc1c(-c2cc(C(=O)O)c3cc(Cl)ccc3n2)nnn1-c1ccc(Cl)cc1 [Compound 5n, 6-Chloro-2-(1-(4-chlorophenyl)-5-methyl-1H-1,2,3-triazol-4-yl)benzo [b]pyridine-4-carboxylic acid] | < 125 µg/mL | – | 12.5 µg/mL (≈ 31.3 µM) | 16 | > 125 µg/mL | 720 ± 30 nM | – | –
15 | Cc1c(-c2cc(C(=O)O)c3cc(Cl)ccc3n2)nnn1-c1ccc(Br)cc1 [Compound 5o, 2-(1-(4-Bromophenyl)-5-methyl-1H-1,2,3-triazol-4-yl)-6-chlorobenzo [b]pyridine-4-carboxylic acid] | < 125 µg/mL | > 300 °C | 15 µg/mL (≈ 33.8 µM) | 10 | > 125 µg/mL | – | – | –
16 | Cc1c(-c2cc(C(=O)O)c3cc(Cl)ccc3n2)nnn1-c1ccc([N+](=O)[O-])cc1 [Compound 5p, 6-Chloro-2-(5-methyl-1-(4-nitrophenyl)-1H-1,2,3-triazol-4-yl)benzo [b]pyridine-4-carboxylic acid] | < 125 µg/mL | 235 to 237 °C | 62.5 µg/mL (≈ 153 µM) | – | > 125 µg/mL | – | – | –
17 | Cc1c(-c2cc(C(=O)O)c3cc(Br)ccc3n2)nnn1-c1ccccc1 [Compound 5q, 6-Bromo-2-(5-methyl-1-phenyl-1H-1,2,3-triazol-4-yl)benzo [b]pyridine-4-carboxylic acid] | < 125 µg/mL | > 300 °C | 15 µg/mL (≈ 36.7 µM) | – | > 125 µg/mL | – | – | –
18 | COc1ccc(-n2nnc(-c3cc(C(=O)O)c4cc(Br)ccc4n3)c2C)cc1 [Compound 5r, 6-Bromo-2-(1-(4-methoxyphenyl)-5-methyl-1H-1,2,3-triazol-4-yl)benzo [b]pyridine-4-carboxylic acid] | < 125 µg/mL | 294 to 295 °C | 15 µg/mL (≈ 34.1 µM) | 5 | > 125 µg/mL | – | – | –
19 | Cc1c(-c2cc(C(=O)O)c3cc(Br)ccc3n2)nnn1-c1cccc(Cl)c1 [Compound 5s, 6-Bromo-2-(1-(3-chlorophenyl)-5-methyl-1H-1,2,3-triazol-4-yl)benzo [b]pyridine-4-carboxylic acid] | < 125 µg/mL | > 300 °C | 15 µg/mL (≈ 33.8 µM) | 13 | > 125 µg/mL | – | – | –
20 | Cc1c(-c2cc(C(=O)O)c3cc(Br)ccc3n2)nnn1-c1cccc(Br)c1 [Compound 5t, 6-Bromo-2-(1-(3-bromophenyl)-5-methyl-1H-1,2,3-triazol-4-yl)benzo [b]pyridine-4-carboxylic acid] | < 125 µg/mL | 299 to 300 °C | 15 µg/mL (≈ 30.7 µM) | 13 | > 125 µg/mL | – | – | –
21 | Cc1c(-c2cc(C(=O)O)c3cc(Br)ccc3n2)nnn1-c1ccc(F)cc1 [Compound 5u, 6-Bromo-2-(1-(4-fluorophenyl)-5-methyl-1H-1,2,3-triazol-4-yl)benzo [b]pyridine-4-carboxylic acid] | < 125 µg/mL | > 300 °C | 62.5 µg/mL (≈ 146 µM) | – | > 125 µg/mL | – | – | –
22 | Cc1c(-c2cc(C(=O)O)c3cc(Br)ccc3n2)nnn1-c1ccc(Cl)cc1 [Compound 5v, 6-Bromo-2-(1-(4-chlorophenyl)-5-methyl-1H-1,2,3-triazol-4-yl)benzo [b]pyridine-4-carboxylic acid] | < 125 µg/mL | > 300 °C | 15 µg/mL (≈ 33.8 µM) | 13 | > 125 µg/mL | – | – | –
23 | Cc1c(-c2cc(C(=O)O)c3cc(Br)ccc3n2)nnn1-c1ccc(Br)cc1 [Compound 5w, 6-Bromo-2-(1-(4-bromophenyl)-5-methyl-1H-1,2,3-triazol-4-yl)benzo [b]pyridine-4-carboxylic acid] | < 125 µg/mL | > 300 °C | 15 µg/mL (≈ 30.7 µM) | 10 | > 125 µg/mL | – | – | –
24 | Cc1c(-c2cc(C(=O)O)c3cc(Br)ccc3n2)nnn1-c1ccc([N+](=O)[O-])cc1 [Compound 5x, 6-Bromo-2-(5-methyl-1-(4-nitrophenyl)-1H-1,2,3-triazol-4-yl)benzo [b]pyridine-4-carboxylic acid] | < 125 µg/mL | 236 to 238 °C | 125 µg/mL (≈ 275 µM) | – | > 125 µg/mL | – | – | –
25 | CC(C)c1ccc2nc(-c3ccc4ccc5ccccc5c4c3)cc(C(=O)O)c2c1 [Compound II] | – | – | – | – | – | – | around 16 μM | –
26 | NNC(=O)c1ccncc1 [INH, isoniazid, reference compound] | 0.05 µg/mL (≈ 0.365 µM) | – | 0.1 µg/mL (≈ 0.729 µM) | – | 0.1 µg/mL (≈ 0.729 µM) | 240 ± 10 nM | – | –
27 | Fc1cccc(-c2nc3ccccc3n2Cc2cn(-c3ccc(F)cc3F)nn2)c1 [compound VII] | – | – | – | – | – | – | – | 6.25 µg/mL (≈ 15.4 µM)
